Reference: patent US7863287B2, “Compositions of non-steroidal anti-inflammatory drugs, decongestants and anti-histamines” (Wyeth LLC, priority 2002, dated 2011)
Counter-ions that a name gives are not always drawn.

Test system: seasonal allergic rhinitis
Test: Multicenter, placebo-controlled, double-blind, randomized multiple-dose efficacy trial in seasonal allergic rhinitis
Type: in vivo, human
Excerpt: The study was a multicenter, outpatient, multiple-dose, placebo controlled, double-blind, double-dummy, parallel-group, randomized trial.
The study enrolled 1070 appropriately selected patients who were at least 12 years of age and included both males and females. […] Qualified subjects were required to undergo a 3-30 day run-in phase to establish that the patients had sufficiently severe allergy symptoms, during which time they reflectively assessed the severity of the following symptoms in the morning (upon waking) and in the evening (prior to bedtime): nasal congestion, sneezing, rhinorrhea, itchy nose/throat/palate; itchy/watery/red eyes and headache/facial pain/pressure/discomfort. The severity of each symptom was assessed using a 4-point categorical scale where 0=none (no symptom present), 1=mild (minimal awareness of symptom, symptom easily tolerated), 2=moderate (symptom present and bothersome, but tolerable) and 3=severe (symptom hard to tolerate; may cause interference with daily activities/sleeping). […] Patients were also assessed for allergy associated pain and were asked if they were in pain. […]

Compound: CN(C)CCC(c1ccc(Cl)cc1)c1ccccn1 (stereo not shown) [chlorpheniramine, chlorpheniramine maleate]
- relief of histamine-mediated symptoms, result in words: more effective than the placebo
